Measurements reported in patent publication US11479539B2, “Small molecule modulators of the BTB domain of Keap1” (MedImmune Limited, priority 2017, dated 2022).

The compounds below were run against Keap1 (Homo sapiens (Human), UniProt Q14145) (assay: HEK293 ARE luciferase assay). Conditions: HEK-293 ARE firefly luciferase transiently transfected cells; 18 h incubation; mean of 1 to 20 individual measurements.
Sequence of Keap1 (Q14145 whole entry): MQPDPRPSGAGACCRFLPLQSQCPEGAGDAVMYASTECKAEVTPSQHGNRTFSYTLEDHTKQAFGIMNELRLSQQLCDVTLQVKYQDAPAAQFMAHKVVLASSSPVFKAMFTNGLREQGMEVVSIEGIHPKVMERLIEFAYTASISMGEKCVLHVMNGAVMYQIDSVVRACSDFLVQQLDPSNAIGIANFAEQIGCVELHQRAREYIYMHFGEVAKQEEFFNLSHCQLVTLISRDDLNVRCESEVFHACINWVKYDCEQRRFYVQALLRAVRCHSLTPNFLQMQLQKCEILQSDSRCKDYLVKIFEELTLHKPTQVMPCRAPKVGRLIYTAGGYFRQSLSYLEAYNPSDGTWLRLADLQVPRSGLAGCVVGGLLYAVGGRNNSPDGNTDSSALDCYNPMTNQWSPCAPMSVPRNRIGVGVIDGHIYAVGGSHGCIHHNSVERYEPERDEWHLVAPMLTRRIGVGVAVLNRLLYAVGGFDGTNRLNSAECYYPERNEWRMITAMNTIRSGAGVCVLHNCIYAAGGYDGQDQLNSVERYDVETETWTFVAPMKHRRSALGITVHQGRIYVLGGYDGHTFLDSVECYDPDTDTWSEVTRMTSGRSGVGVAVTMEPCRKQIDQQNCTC
Type: cell-based
Method in brief: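 Transiently transfected HEK-293 ARE firefly luciferase cells (10,000/well, DMEM with 10% FCS) exposed to compound, 10-point curve from 100 μM top, 0.3% DMSO, 18 h at 37 °C. SteadyGlo luminescence; activity normalised to 30 μM tBHQ (stimulator) and DMSO (neutral), activity threshold 50; means of 1-20 measurements.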
`COC1(c2ncc(F)cc2-c2cnccc2C#N)C=C(C#N)C(=O)C(C)(C)C1` (single isomer, unassigned) [Compound 217, 2′-[3-cyano-1-methoxy-5,5-dimethyl-4-oxocyclohex-2-en-1-yl]-5′-fluoro[3,3′-bipyridine]-4-carbonitrile] was tested, and the EC50 was 12 nM. `COc1cc(-c2cc(F)cnc2C2(OC)C=C(C#N)C(=O)C(C)(C)C2)c(Cl)cn1` (single isomer, unassigned) [Compound 218, 3-(5′-chloro-5-fluoro-2′-methoxy[3,4′-bipyridin]-2-yl)-3-methoxy-5,5-dimethyl-6-oxocyclohex-1-ene-1-carbonitrile] gave an EC50 of 23 nM. With `COC1(c2ncc(F)cc2-c2cnn3ccccc23)C=C(C#N)C(=O)C(C)(C)C1` (single isomer, unassigned) [Compound 219, 3-[5-fluoro-3-(pyrazolo[1,5-a]pyridin-3-yl)pyridin-2-yl]-3-methoxy-5,5-dimethyl-6-oxocyclohex-1-ene-1-carbonitrile] the EC50 was 5 nM. Compound `COC1(c2ncc(F)cc2-c2ccnnc2)C=C(C#N)C(=O)C(C)(C)C1` (single isomer, unassigned) [Compound 220, 3-[5-fluoro-3-(pyridazin-4-yl)pyridin-2-yl]-3-methoxy-5,5-dimethyl-6-oxocyclohex-1-ene-1-carbonitrile] has an EC50 of 10 nM. Work on `COC1(c2ncc(F)cc2-c2cncc(S(=O)(=O)C(C)C)c2)C=C(C#N)C(=O)C(C)(C)C1` (single isomer, unassigned) [Compound 221, 3-{5-fluoro-5′-[(propan-2-yl)sulfonyl][3,3′-bipyridin]-2-yl}-3-methoxy-5,5-dimethyl-6-oxocyclohex-1-ene-1-carbonitrile] yielded an EC50 of 8 nM. Work on `COC1(c2ncc(F)cc2-c2cncc(C(C)(C)C#N)c2)C=C(C#N)C(=O)C(C)(C)C1` (single isomer, unassigned) [Compound 222, 3-[5′-(2-cyanopropan-2-yl)-5-fluoro[3,3′-bipyridin]-2-yl]-3-methoxy-5,5-dimethyl-6-oxocyclohex-1-ene-1-carbonitrile] yielded an EC50 of 6 nM. `COC1(c2ncc(F)cc2-c2cncc(OC(F)F)c2)C=C(C#N)C(=O)C(C)(C)C1` (single isomer, unassigned) [Compound 223, 3-[5′-(difluoromethoxy)-5-fluoro[3,3′-bipyridin]-2-yl]-3-methoxy-5,5-dimethyl-6-oxocyclohex-1-ene-1-carbonitrile] gave an EC50 of 14 nM. Work on `COC1(c2ncc(F)cc2Cl)C=C(C#N)C(=O)C(C)(C)C1` (single isomer, unassigned) [Compound 224, 3-(3-chloro-5-fluoropyridin-2-yl)-3-methoxy-5,5-dimethyl-6-oxocyclohex-1-ene-1-carbonitrile] yielded an EC50 of 14 nM. Work on `COC1(c2ncc(Cl)cc2Cl)C=C(C#N)C(=O)C(C)(C)C1` (single isomer, unassigned) [Compound 225, 3-(3,5-dichloropyridin-2-yl)-3-methoxy-5,5-dimethyl-6-oxocyclohex-1-ene-1-carbonitrile] yielded an EC50 of 12 nM. In the case of `COC1(c2ncc(F)cc2-c2ccc3nccn3c2)C=C(C#N)C(=O)C(C)(C)C1` (single isomer, unassigned) [Compound 226, 3-[5-fluoro-3-(imidazo[1,2-a]pyridin-6-yl)pyridin-2-yl]-3-methoxy-5,5-dimethyl-6-oxocyclohex-1-ene-1-carbonitrile], the EC50 is reported as 13 nM. Compound `COC1(c2ncc(F)cc2-c2cncc(C(=O)N(C)C)c2)C=C(C#N)C(=O)C(C)(C)C1` (single isomer, unassigned) [Compound 227, 2′-(3-cyano-1-methoxy-5,5-dimethyl-4-oxocyclohex-2-en-1-yl)-5′-fluoro-N,N-dimethyl[3,3′-bipyridine]-5-carboxamide] has an EC50 of 15 nM. `COC1(c2ncc(F)cc2-c2cnn(CC(F)(F)F)c2)C=C(C#N)C(=O)C(C)(C)C1` (single isomer, unassigned) [Compound 228, 3-{5-fluoro-3-[1-(2,2,2-trifluoroethyl)-1H-pyrazol-4-yl]pyridin-2-yl}-3-methoxy-5,5-dimethyl-6-oxocyclohex-1-ene-1-carbonitrile] showed an EC50 of 15 nM. In the case of `COC1(c2ncc(F)cc2-c2ccn3nc(C)nc3c2)C=C(C#N)C(=O)C(C)(C)C1` (single isomer, unassigned) [Compound 229, 3-[5-fluoro-3-(2-methyl[1,2,4]triazolo[1,5-a]pyridin-7-yl)pyridin-2-yl]-3-methoxy-5,5-dimethyl-6-oxocyclohex-1-ene-1-carbonitrile], the EC50 is reported as 10 nM. `COC1(c2ncc(F)cc2-c2cnc(C)c(F)c2)C=C(C#N)C(=O)C(C)(C)C1` (single isomer, unassigned) [Compound 230, 3-(5,5′-difluoro-6′-methyl[3,3′-bipyridin]-2-yl)-3-methoxy-5,5-dimethyl-6-oxocyclohex-1-ene-1-carbonitrile] was tested, and the EC50 was 16 nM. Work on `COC1(c2ncc(F)cc2-c2cnn3c2CCC3)C=C(C#N)C(=O)C(C)(C)C1` (single isomer, unassigned) [Compound 231, 3-[3-(5,6-dihydro-4H-pyrrolo[1,2-v]pyrazol-3-yl)-5-fluoropyridin-2-yl]-3-methoxy-5,5-dimethyl-6-oxocyclohex-1-ene-1-carbonitrile] yielded an EC50 of 16 nM. Work on `COC1(c2ncc(F)cc2-c2cncc(C3CC3)c2)C=C(C#N)C(=O)C(C)(C)C1` (single isomer, unassigned) [Compound 232, 3-(5′-cyclopropyl-5-fluoro[3,3′-bipyridin]-2-yl)-3-methoxy-5,5-dimethyl-6-oxocyclohex-1-ene-1-carbonitrile] yielded an EC50 of 23 nM. For `CCc1cncc(-c2cc(F)cnc2C2(OC)C=C(C#N)C(=O)C(C)(C)C2)c1` (single isomer, unassigned) [Compound 233, 3-(5′-ethyl-5-fluoro[3,3′-bipyridin]-2-yl)-3-methoxy-5,5-dimethyl-6-oxocyclohex-1-ene-1-carbonitrile], the EC50 was 6 nM. With `COc1ncc(C)cc1-c1cc(F)cnc1C1(OC)C=C(C#N)C(=O)C(C)(C)C1` (single isomer, unassigned) [Compound 234, 3-(5-fluoro-2′-methoxy-5′-methyl[3,3′-bipyridin]-2-yl)-3-methoxy-5,5-dimethyl-6-oxocyclohex-1-ene-1-carbonitrile] the EC50 was 9 nM. `COC1(c2ncc(F)cc2-c2cncc(S(C)(=O)=O)c2)C=C(C#N)C(=O)C(C)(C)C1` (single isomer, unassigned) [Compound 235, 3-[5-fluoro-5′-(methylsulfonyl)[3,3′-bipyridin]-2-yl)-3-methoxy-5,5-dimethyl-6-oxocyclohex-1-ene-1-carbonitrile] gave an EC50 of 79 nM. For `COC1(c2ncc(F)cc2-c2ccnc(C(F)(F)F)c2)C=C(C#N)C(=O)C(C)(C)C1` (single isomer, unassigned) [Compound 236, 3-[5-fluoro-2′-(trifluoromethyl)[3,4′-bipyridin]-2-yl]-3-methoxy-5,5-dimethyl-6-oxocyclohex-1-ene-1-carbonitrile], the EC50 was 17 nM. Work on `COc1cncc(-c2cc(F)cnc2C2(OC)C=C(C#N)C(=O)C(C)(C)C2)c1` (single isomer, unassigned) [Compound 237, 3-(5-fluoro-5′-methoxy[3,3′-bipyridin]-2-yl)-3-methoxy-5,5-dimethyl-6-oxocyclohex-1-ene-1-carbonitrile] yielded an EC50 of 20 nM. `COC1(c2ncc(Cl)cc2C(F)F)C=C(C#N)C(=O)C2(CC2)C1` (single isomer, unassigned) [Compound 238, 7-[5-chloro-3-(difluoromethyl)pyridin-2-yl]-7-methoxy-4-oxospiro[2.5]oct-5-ene-5-carbonitrile] showed an EC50 of 44 nM.
